37 compounds from patent US6951881B2, “(1-substituted-indol-3-yl) alkylidenehydrazinecarboximidamide derivatives as 5-hydroxytryptamine-6 ligands” (Wyeth, priority 2002, dated 2005) can be followed below.

T1 sequence (P50406 whole entry): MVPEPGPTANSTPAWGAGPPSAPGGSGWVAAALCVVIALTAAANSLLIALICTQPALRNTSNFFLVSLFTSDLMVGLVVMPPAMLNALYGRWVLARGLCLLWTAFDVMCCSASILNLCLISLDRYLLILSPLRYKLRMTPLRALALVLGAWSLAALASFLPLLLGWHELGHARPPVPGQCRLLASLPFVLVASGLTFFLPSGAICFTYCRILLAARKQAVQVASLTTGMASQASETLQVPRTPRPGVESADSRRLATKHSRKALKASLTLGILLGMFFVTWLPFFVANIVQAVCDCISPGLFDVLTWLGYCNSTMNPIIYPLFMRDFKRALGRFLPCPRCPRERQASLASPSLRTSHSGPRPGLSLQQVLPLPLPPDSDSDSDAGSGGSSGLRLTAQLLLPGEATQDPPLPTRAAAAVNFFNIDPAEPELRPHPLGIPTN

The first assay has as its target T1, human cloned 5-HT6 receptors (Homo sapiens, UniProt P50406).
T1 construct: expressed in transfected cells; host or cells: HeLa cells
The format is binding.
Conditions: not given
Usually inhibition stands for the drop in the measured response relative to a control, in per cent. Compound `C/C(=N\NC(=N)N)c1c(-c2ccc(Cl)cc2Cl)[nH]c2ccc(Cl)cc12` [Example 127, 2-{[5-Chloro-2-(2,4-dichlorophenyl)-1H-indol-3-yl]ethylidene}hydrazinecarboximidamide] returned an inhibition at 0.1 µM of 50.6%.

`C/C(=N\NC(=N)N)c1c(-c2ccc(Cl)cc2Cl)n(C)c2ccc(Cl)cc12` [Example 128, 2-{[5-Chloro-2-(2,4-dichlorophenyl)-1-methyl-1H-indol-3-yl]ethylidene}hydrazinecarboximidamide] gave an inhibition at 0.1 µM of 57.3%.

The assay is the same for the next values; noted with them: [3H]-LSD 3.0 nM, Hela cell membranes; read-out: 5-HT6 Binding Ki.
For orientation: Ki means the equilibrium dissociation constant of an inhibitor or competing ligand from its target. Consider `COc1ccc2[nH]c3c(c2c1)C(=NNC(=N)N)CCC3` [Example 162, N′-(6-methoxy-1,2,3,9-tetrahydro-4H-carbazol-4-ylidene)carbonohydrazonic diamide], for which the Ki turned out to be 4.7 nM.

Still in this assay, the particulars now being: test compound dose 10 nM; displacement of [3H]-LSD.
In the case of `N=C(N)NN=C1CCCc2[nH]c3ccc(Br)cc3c21` [Example 159, 2-(6-bromo-1,2,3,9-tetrahydro-4H-carbazol-4-ylidene)hydrazinecarboximidamide], testing at 0.01 µM gave an inhibition of 61.1%. Same read-out and setting: the result for `N=C(N)NN=C1CCCc2[nH]c3ccccc3c21` [Example 161, 2-(1,2,3,9-tetrahydro-4H-carbazol-4-ylidene)hydrazinecarboximidamide] reads 39.5%.

Still in this assay, the particulars now being: test compound dose 100 nM; displacement of [3H]-LSD.
One may read the % Inhibition as the drop in the measured response relative to a control, in per cent. Lower therefore signals a response near the control. Regarding `CC(=NNC(=N)N)c1c(-c2ccc(-c3ccccc3)cc2)[nH]c2ccc(Cl)cc12` [Example 141, 2-[(2-biphenyl-5-chloro-1H-indol-3-yl)-ethylidene]hydrazinecarboximidamide], the “% Inhibition” value stood at 33.6%. Regarding `CC(=NNC(=N)N)c1c(-c2ccc(-c3ccccc3)cc2)n(C)c2ccc(Cl)cc12` [Example 143, 2-[(2-biphenyl-5-chloro-1-methyl-1H-indol-3-yl)-ethylidene]hydrazinecarboximidamide], the “% Inhibition” value was found to be 34.6%.

The assay is the same for the next values; noted with them: test compound dose 100 nM; displacement of [3H]-LSD; read-out: % Inhibition.
Turning to `C/C(=N\NC(=N)N)c1c(-c2sccc2C)[nH]c2ccccc12` [Example 133, 2-{[2-(2-(3-methyl-thienyl))-1H-indol-3-yl]-ethylidene}hydrazinecarboximidamide], the inhibition at 0.1 µM turned out to be 63.2%.

As for `C/C(=N\NC(=N)N)c1c(-c2sccc2C)n(C)c2ccccc12` [Example 146, 2-{[1-methyl-2-(2-(3-methyl-thienyl))-1H-indol-3-yl]-ethylidene}hydrazinecarboximidamide], the inhibition at 0.1 µM was 46.1%.

With `Cc1ccc2[nH]c3c(c2c1)C(=NNC(=N)N)CC(C)(C)C3` [Example 163, 2-(2,2,6-trimethyl-1,2,3,9-tetrahydro-4H-carbazol-4-ylidene)hydrazinecarboximidamide], the inhibition at 0.1 µM turned out to be 38.5%. On the same count and under the same terms, the value for `Cc1ccc2[nH]c3c(c2c1)C(=NNC(=N)N)CC(c1ccccc1)C3` (centres unmarked) [Example 164, 2-(6-methyl-2-phenyl-1,2,3,9-tetrahydro-4H-carbazol-4-ylidene)hydrazinecarboximidamide] was 27.6%. Same read-out and setting: the result for `Cc1ccc2[nH]c3c(c2c1)C(=NNC(=N)N)CCC3` [Example 165, 2-(6-methyl-1,2,3,9-tetrahydro-4H-carbazol-4-ylidene)hydrazinecarboximidamide] reads 57.2%; that for `CC(C)c1ccc2[nH]c3c(c2c1)C(=NNC(=N)N)CC(C)(C)C3` [Example 166, 2-(6-isopropyl-2,2-dimethyl-1,2,3,9-tetrahydro-4H-carbazol-4-ylidene)hydrazinecarboximidamide], 27.3%. Same read-out and setting: the value for `CC(C)c1ccc2[nH]c3c(c2c1)C(=NNC(=N)N)CC(c1ccccc1)C3` (centres unmarked) [Example 167, 2-(6-isopropyl-2-phenyl-1,2,3,9-tetrahydro-4H-carbazol-4ylidene)hydrazinecarboximidamide] was 35.2%; that for `CC1(C)CC(=NNC(=N)N)c2c([nH]c3ccc(OC(F)(F)F)cc23)C1` [Example 168, 2-[2,2-dimethyl-6-(trifluoromethoxy)-1,2,3,9-tetrahydro-4H-carbazol-4-ylidene]hydrazinecarboximidamide] was 26%. For `CC1(C)CC(=NNC(=N)N)c2c([nH]c3ccc(Br)cc23)C1` [Example 169, 2-(6-bromo-2,2-dimethyl-1,2,3,9-tetrahydro-4H-carbazol-4-ylidene)hydrazinecarboximidamide], the inhibition at 0.1 µM is 33.9%. With `N=C(N)NN=C1CC(c2ccccc2)Cc2[nH]c3ccc(Br)cc3c21` (centres unmarked) [Example 170, 2-(6-bromo-2-phenyl-1,2,3,9-tetrahydro-4H-carbazol-4-ylidene)hydrazinecarboximidamide], the inhibition at 0.1 µM is 24.4%.

The assay is the same for the next values; noted with them: test compound dose 1000 nM; displacement of [3H]-LSD.
Regarding `C=CCCn1c(-c2ccc(Cl)cc2)c(C=NN(C)C2=NCCN2)c2ccccc21` [Example 112, N-{[1-(3-butenyl)-2-(4-chloro-phenyl)-1H-indol-3-yl]-methylene}-N′-(4,5-dihydro-1H-imidazol-2-yl)-N-methylhydrazine], the “% Inhibition” value came to 85.1%. `N=C(NCCO)NN=Cc1c(-c2ccc(Cl)cc2)[nH]c2ccccc12` [Example 113, 2-{[2-(4-chlorophenyl)-1H-indol-3-yl]methylidene}-N-(2-hydroxyethyl)-1hydrazinecarboximidamide] had an inhibition at 1 µM of 84.1%.

Take `CN=C(NCCO)NN=Cc1c(-c2ccc(Cl)cc2)[nH]c2ccccc12` [Example 114, 2-{[2-(4-chlorophenyl)-1H-indol-3-yl]methylidene}-N-(2-hydroxyethyl)-N′-methyl-1hydrazinecarboximidamide]: testing at 1 µM gave an inhibition of 31.6%. `N=C(NN=Cc1c(-c2ccc(Cl)cc2)[nH]c2ccccc12)NC1CCCC1` [Example 115, 2-{[2-(4-chlorophenyl)-1H-indol-3-yl]methylidene}-N-cyclopentyl-1hydrazinecarboximidamide]: the inhibition at 1 µM amounted to 49.5%. Consider `CN=C(NN=Cc1c(-c2ccc(Cl)cc2)[nH]c2ccccc12)NC1CCCC1` [Example 116, 2-{[2-(4-chlorophenyl)-1H-indol-3-yl]methylidene}-N-cyclopentyl-N′-methyl-1hydrazinecarboximidamide], for which the inhibition at 1 µM worked out at 59.5%. In turn, `N=C(NCc1ccccc1)NN=Cc1c(-c2ccc(Cl)cc2)[nH]c2ccccc12` [Example 117, 2-{[2-(4-chlorophenyl)-1H-indol-3-yl]methylidene}-N-benzyl-1hydrazinecarboximidamide] returned an inhibition at 1 µM of 69%. The same measure, in the same setting: the result for `CN=C(NCc1ccccc1)NN=Cc1c(-c2ccc(Cl)cc2)[nH]c2ccccc12` [Example 118, 2-{[2-(4-chlorophenyl)-1H-indol-3-yl]methylidene}-N-benzyl-N′-methyl-1hydrazinecarboximidamide] reads 56.2%; that for `CCCNC(=N)NN=Cc1c(-c2ccc(Cl)cc2)[nH]c2ccccc12` [Example 119, 2-{[2-(4-chlorophenyl)-1H-indol-3-yl]methylidene}-N-propyl-1hydrazinecarboximidamide], 86%.

For the compound `CCCNC(=NC)NN=Cc1c(-c2ccc(Cl)cc2)[nH]c2ccccc12` [Example 120, 2-{[2-(4-chlorophenyl)-1H-indol-3-yl]methylidene}-N′-methyl-N-propyl-1hydrazinecarboximidamide], the inhibition at 1 µM was 49.9%. On the same count and under the same terms, the value for `CNC(=N)NN=Cc1c(-c2ccc(Cl)cc2)[nH]c2ccccc12` [Example 121, 2-{[2-(4-chlorophenyl)-1H-indol-3-yl]methylidene}-N-methyl-1hydrazinecarboximidamide] was 90.5%; that for `CN=C(NC)NN=Cc1c(-c2ccc(Cl)cc2)[nH]c2ccccc12` [Example 122, 2-{[2-(4-chlorophenyl)-1H-indol-3-yl]methylidene}-N,N′-dimethyl-1hydrazinecarboximidamide] was 38.4%. Still for that read-out and setting: the result for `CCCCCNC(=N)NN=Cc1c(-c2ccc(Cl)cc2)[nH]c2ccccc12` [Example 123, 2-{[2-(4-chlorophenyl)-1H-indol-3-yl]methylidene}-N-pentyl-1hydrazinecarboximidamide] reads 70.4%.

In the case of `CCCCCNC(=NC)NN=Cc1c(-c2ccc(Cl)cc2)[nH]c2ccccc12` [Example 124, 2-{[2-(4-chlorophenyl)-1H-indol-3-yl]methylidene}-N′-methyl-N-pentyl-1hydrazinecarboximidamide], 1 µM produced 74% inhibition.

With `N=C(N)N/N=C1\CCCc2[nH]c3ccc(Cl)cc3c21` [Example 152, 2-(6-Chloro-1,2,3,9-tetrahydro-4H-carbazol-4-ylidene)hydrazine-carboximidamide], the inhibition at 1 µM worked out at 99.1%. The same measure, in the same setting: the value for `Clc1ccc2[nH]c3c(c2c1)C(=NNC1=NCCN1)CCC3` [Example 153, 6-chloro-1,2,3,9-tetrahydro-4H-carbazol-4-one 4,5-dihydro-1H-imidazol-2-ylhydrazone] was 97%; that for `CN(N=C1CCCc2[nH]c3ccc(Cl)cc3c21)C1=NCCN1` [Example 154, 6-chloro-1,2,3,9-tetrahydro-4H-carbazol-4-one 4,5-dihydro-1H-imidazol-2-yl(methyl)hydrazone] was 87.1%; that for `N=C(N)NN=C1CCCc2[nH]c3ccc(F)cc3c21` [Example 156, 2-(6-fluoro-1,2,3,9-tetrahydro-4H-carbazol-4-ylidene)hydrazinecarboximidamide] was 98.8%. Still for that read-out and setting: the value for `Fc1ccc2[nH]c3c(c2c1)C(=NNC1=NCCN1)CCC3` [Example 157, 6-fluoro-1,2,3,9-tetrahydro-4H-carbazol-4-one 4,5-dihydro-1H-imidazol-2-ylhydrazone] was 96.3%. Still for that read-out and setting: the result for `CN(N=C1CCCc2[nH]c3ccc(F)cc3c21)C1=NCCN1` [Example 158, 6-fluoro-1,2,3,9-tetrahydro-4H-carbazol-4-one 4,5-dihydro-1H-imidazol-2-yl(methyl)hydrazone] reads 68.7%; that for `CN(N=C1CCCc2[nH]c3ccc(Br)cc3c21)C1=NCCN1` [Example 160, 6-bromo-1,2,3,9-tetrahydro-4H-carbazol-4-one 4,5-dihydro-1H-imidazol-2-yl(methyl)hydrazone], 76%.

With `COc1ccc2[nH]c3c(c2c1)C(=NNC(=N)N)CCC3` [Example 162, N′-(6-methoxy-1,2,3,9-tetrahydro-4H-carbazol-4-ylidene)carbonohydrazonic diamide], the “% Inhibition” value came to 98%.
